Consider one substance from US20050272636A1, “Treatment and diagnosis of a reproductive disorder by measuring or inhibiting interferon-gamma” (Adelaide Research & Innovation Pty Ltd., priority 2002, published 2005).

This assay deals with mice. Briefly: Effect of IFN-γ treatment on pregnancy outcome in mice (Example 8). Format: in vivo. As to conditions: implantation rate, viable versus resorbing fetuses, fetal and placental weight on day 18. On the procedure: Mice are housed under specific pathogen-free conditions at the University of Adelaide Medical School Animal House on a 12:12 light-dark cycle, and administered food and water ad libitum. Adult Balb/c×C57B1/6 F1 females (7-10 weeks old) are synchronised into estrus by caging in close proximity to males. Estrus is identified on the basis of presence of cornified epithelial cells in vaginal smears prepared at 0900-1000 h daily and examined by phase contrast microscopy. On the day of estrus (day 0) females are caged with proven fertile Balb/k males for natural mating. The day of sighting a vaginal plug is nominated day 1 of pregnancy.
Mice are randomly allocated to one of four groups and treated as follows: Group 1 (100 ng IFN-γ) mice receive three intraperitoneal injections of […] recombinant mouse IFN-γ (rmIFN-γ, R&D Systems) in 200 μl PBS containing 1% bovine serum albumin (PBS-BSA) at 1700 h on day 0, at 1000 h on day 1 and 1700hon day 1.
Group 2 (250 ng IFN-γ) receive three injections of 250 ng rmIFN-γ according to the same time schedule.
Group 3 (control) receive three injections of PBS-BSA instead of IFN-γ according to the same time schedule.
Group 4 (comparison) Mice are mated but otherwise remain untreated.
Twenty mice per group are used to ensure statistical significance in treatment effects.
Alternatively, a transcervical delivery route for IFN-γ is used. Treatments are delivered directly into the uterine lumen with the aid of a tom-cat catheter (Sovereign, St Louis Mo.). In mated animals this requires removal of vaginal plugs using forceps to allow transcervical access. Mice are randomly allocated to one of four groups and treated as follows: the first group (100 ng IFN-γ) mice receive three transcervical injections of […] recombinant mouse IFN-γ (rmIFN-γ, R&D Systems) in 200 μl PBS containing 1% bovine serum albumin (PBS-BSA) at 1700 h on day 0, at 1000 h on day 1 and 1700 h on day 1. The second group (25 ng IFN-γ) receive three injections of 25 ng rmIFN-γ according to the same time schedule. The third group (control) receive three injections of PBS-BSA instead of IFN-γ according to the same time schedule. For comparison, a fourth group of mice are mated but otherwise would remain untreated. Twenty mice per group are used to ensure statistical significance in treatment effects.
Pregnant females are sacrificed by cervical dislocation at 1000 h -1200 h on day 18 of gestation. The intact uterus of each female is removed and total, viable and resorbing implantation sites counted. Each viable fetus is dissected from the amniotic sac and umbilical cord, and fetuses and placentae weighed. Placental tissues are fixed in paraformaldehyde and processed for histological staining of paraffin sections, using Masson's trichrome stain.

In the case of “rhTGFβ1: recombinant human transforming growth factor β1 (R&D Systems)”, the “effect on the detrimental effects of IFN-γ on pregnancy outcome” value is recorded as “reverses the detrimental effects of IFN-γ”.
